Tests used:
[1] = target: T1, 5HT2C receptors (Homo sapiens, UniProt P28335); assay: Human 5-HT2C functional assay in CHO-K1 cells (calcium flux, FLIPR); type: cell-based; set-up: expressed in transfected cells; host or cells: CHO-K1 cells; settings: CHO-K1 cells over-expressing 5HT2C, calcium flux; read-out: EC50 (μM), 5-HT2c Agonist Activity
T1 sequence (P28335 33-458): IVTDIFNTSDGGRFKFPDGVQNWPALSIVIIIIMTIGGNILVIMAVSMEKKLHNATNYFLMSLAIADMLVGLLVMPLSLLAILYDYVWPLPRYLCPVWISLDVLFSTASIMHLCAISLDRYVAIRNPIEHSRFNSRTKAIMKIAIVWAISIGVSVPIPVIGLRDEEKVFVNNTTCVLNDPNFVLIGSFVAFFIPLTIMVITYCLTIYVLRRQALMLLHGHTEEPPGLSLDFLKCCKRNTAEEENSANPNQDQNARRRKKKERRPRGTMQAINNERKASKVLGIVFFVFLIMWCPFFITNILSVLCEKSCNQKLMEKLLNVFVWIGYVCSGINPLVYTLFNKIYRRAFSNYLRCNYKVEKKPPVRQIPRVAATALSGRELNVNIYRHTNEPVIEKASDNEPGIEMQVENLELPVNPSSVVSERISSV
How it was run: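 EC50 came from a 4-parameter logistic fit, with Emax expressed relative to serotonin, of intracellular Ca2+ rises read on FLIPR at 480/530 nm, 25° C, over 3 min. Compounds ran from 10 μM in six 1:10 steps (0.2% DMSO) on serum-starved CHO-K1 transfectants pre-loaded 60 min with Ca4 dye and probenecid.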

[2] = target: T2, h-5-HT6 receptor (Homo sapiens, UniProt P50406); assay: Human 5-HT6 receptor radioligand binding assay ([3H]-LSD, HEK293 membranes); settings: HEK293 membranes, 1 nM [3H]-lysergic acid diethylamide, 3.5 hours at room temperature; read-out: Ki (μM), 5-HT6 Agonist Site Radioligand Binding
T2 construct: expressed in transfected cells; host or cells: HEK293 cells (membrane preparation)
T2 sequence (P50406 whole entry): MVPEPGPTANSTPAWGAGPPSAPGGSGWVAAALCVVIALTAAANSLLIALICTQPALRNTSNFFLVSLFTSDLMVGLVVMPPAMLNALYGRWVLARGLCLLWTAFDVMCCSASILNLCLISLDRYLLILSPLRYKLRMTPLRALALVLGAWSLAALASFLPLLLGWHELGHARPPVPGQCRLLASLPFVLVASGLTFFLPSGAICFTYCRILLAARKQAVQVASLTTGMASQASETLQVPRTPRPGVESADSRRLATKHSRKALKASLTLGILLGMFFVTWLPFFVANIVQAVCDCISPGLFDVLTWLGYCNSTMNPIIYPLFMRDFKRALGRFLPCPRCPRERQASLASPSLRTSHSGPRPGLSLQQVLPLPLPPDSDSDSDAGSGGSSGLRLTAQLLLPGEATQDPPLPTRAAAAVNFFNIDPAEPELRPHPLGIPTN
Procedure: (iv) Human 5-HT6 Receptor Radioligand Binding Assay
Preparation of Membranes by Ultrasonic Treatment and Differential Centrifugation
Cells from stable clonal cell lines expressing the corresponding receptor (5-HT6) were washed with PBS (without Ca^++, Mg^++) and harvested in PBS with 0.02% EDTA. The cells were collected by centrifugation at 500 g for 10 minutes at 4° C., washed with PBS and centrifuged (500 g, 10 minutes at 4° C.). The pellets were stored at −80° C. until use. For membrane preparation, the thawed cell pellet was resuspended in ice-cold sucrose buffer (0.25 M sucrose, 10 mM HEPES (pH 7.4), 1 mM phenylmethylsulfonyl fluoride (PMSF) in DMSO, 5 μg/ml Pepstatin-A, 3 mM EDTA, 0.025% Bacitracin) and homogenized with a Branson Sonifier W-250 (Settings: Timer 4; Output Control 3; Duty Cycle constant; 2 to 3 cycles). Cell disruption was checked with the aid of a microscope. Remaining unbroken cells were pelleted at 1,000 g for 10 minutes at 4° C. The sucrose buffer supernatant was then centrifuged at 60,000 g for 1 hour at 4° C. (Beckman Ultrazentrifuge XL 80). The pellet was resuspended in 30 mL of ice-cold Tris buffer (20 mM TRIS (pH 7.4), 5 μg/mL Pepstatin A, 0.1 mM PMSF, 3 mM EDTA) by pipetting through a 10 mL serological pipet and centrifuged for 1 hour at 4° C. at 60,000 g. A final resuspension was performed in a small volume of ice-cold Tris buffer (see above) by pressing through a serological pipet followed by ultrasonic treatment with a Branson Sonifier W-250 (Settings: Timer 1; Output Control 3; Duty Cycle constant; 1 cycle). Protein concentration was determined (BCA-Kit; Pierce) and aliquots stored at −80° C. or in liquid nitrogen for long-term storage.
Receptor Binding Experiments
All receptor binding experiments were carried out in the corresponding assay buffer in a total volume of 200 μL in the presence of various concentrations of test compound (10^−5 M to 10^−9 M, tenfold serial dilution, duplicate determinations). The assays were terminated by filtration on polyethylenimine (PEI 0.1% or 0.3%) presoaked Packard Unifilter Plates (GF/C or GF/B) with a Tomtec MachIII U 96 well-plate harvester. After the plates had been dried for 2 hours at 55° C. in a drying chamber scintillation cocktail (BetaPlate Scint; PerkinElmer) was added. Radioactivity was measured in a Microbeta Trilux two hours after the addition of the scintillation mixture.
5-HT6 Receptor Binding Assay
HEK293 cells stably expressing the h-5-HT6 receptor (NCBI Reference Sequence XM 001435) were cultured in RPMI1640 medium supplemented with 25 mM HEPES, 10% fetal calf serum and 1-2 mM glutamine. The membrane preparation was performed as described above. […] On the day of the assay, the membranes were thawed, diluted in assay buffer (50 mM Tris-HCl, 5 mM CaCl2, 0.1% ascorbic acid, 10 μM pargyline, pH 7.4) to a concentration of 8 μg protein/assay and homogenized by gentle vortexing. […] Non-specific binding was defined with 1 μM methiothepin. The binding reaction was carried out for 3.5 hours at room temperature. During the incubation, the plates were shaken on a plate shaker at 100 rpm and terminated by filtration on Packard Unifilter GF/C (0.1% PEI) plates, followed by 2 wash cycles with ice-cold 50 mM Tris-HCl, 5 mM CaCl2.
Data derived from liquid scintillation counting were analyzed by iterative non-linear regression analysis with the use of the Statistical Analysis System (SAS): a program similar to “LIGAND” as described by Munson and Rodbard (Anal. Biochem. 1980, 107, 220-239). Fitting was performed according to formulae described by Feldman (Anal. Biochem. 1972, 48, 317-338). IC50, nH and Ki values were expressed as geometrical mean.
The results of the receptor binding studies are expressed as receptor binding constants Ki(5-HT6) as described herein before, and given in Table 5.

Compound | EC50 [1] | Ki [2]
O=C1CC2CNCCN2c2ccc(NS(=O)(=O)c3ccc(Cl)cc3)cc2N1 (stereo not shown) [Example 102, 4-chloro-N-(6-oxo-1,2,3,4,4a,5,6,7-octahydropyrazino[1,2-a][1,5]benzodiazepin-9-yl)benzenesulfonamide] |  | 0.0092 µM
O=C1CC2CNCCN2c2ccc(NS(=O)(=O)c3ccc(F)cc3)cc2N1 (stereo not shown) [Example 105, 4-fluoro-N-(6-oxo-1,2,3,4,4a,5,6,7-octahydropyrazino[1,2-a][1,5]benzodiazepin-9-yl)benzenesulfonamide] |  | 0.0208 µM
COc1ccccc1S(=O)(=O)Nc1ccc2c(c1)NC(=O)CC1CNCCN21 (stereo not shown) [Example 106, 2-methoxy-N-(6-oxo-1,2,3,4,4a,5,6,7-octahydropyrazino[1,2-a][1,5]benzodiazepin-9-yl)benzenesulfonamide] |  | 0.026 µM
COc1ccc(S(=O)(=O)Nc2ccc3c(c2)NC(=O)CC2CNCCN32)cc1 (stereo not shown) [Example 108, 4-methoxy-N-(6-oxo-1,2,3,4,4a,5,6,7-octahydropyrazino[1,2-a][1,5]benzodiazepin-9-yl)benzenesulfonamide] |  | 0.0669 µM
O=C1CC2CNCCN2c2ccc(NS(=O)(=O)c3cccc(OC(F)(F)F)c3)cc2N1 (stereo not shown) [Example 120, N-(6-oxo-1,2,3,4,4a,5,6,7-octahydropyrazino[1,2-a][1,5]benzodiazepin-9-yl)-3-(trifluoromethoxy)benzenesulfonamide] |  | 0.0183 µM
Cc1ccc(C)c(S(=O)(=O)Nc2ccc3c(c2)NC(=O)CC2CNCCN32)c1 (stereo not shown) [Example 125, 2,5-dimethyl-N-(6-oxo-1,2,3,4,4a,5,6,7-octahydropyrazino[1,2-a][1,5]benzodiazepin-9-yl)benzenesulfonamide] |  | 0.0156 µM
Cc1cc(C)cc(S(=O)(=O)Nc2ccc3c(c2)NC(=O)CC2CNCCN32)c1 (stereo not shown) [Example 129, 3,5-dimethyl-N-(6-oxo-1,2,3,4,4a,5,6,7-octahydropyrazino[1,2-a][1,5]benzodiazepin-9-yl)benzenesulfonamide] |  | 0.0132 µM
O=C1CC2CNCCN2c2ccc(NS(=O)(=O)c3ccccc3OC(F)(F)F)cc2N1 (stereo not shown) [Example 130, N-(6-oxo-1,2,3,4,4a,5,6,7-octahydropyrazino[1,2-a][1,5]benzodiazepin-9-yl)-2-(trifluoromethoxy)benzenesulfonamide] |  | 0.0181 µM

The remaining compounds from weak to strong by Ki [2], led by results:

EC50 [1] | Ki [2] | Compound
 | 0.621 µM | N#Cc1ccc(S(=O)(=O)Nc2ccc3c(c2)NC(=O)CC2CNCCN32)cc1 (stereo not shown) [Example 121, 4-cyano-N-(6-oxo-1,2,3,4,4a,5,6,7-octahydropyrazino[1,2-a][1,5]benzodiazepin-9-yl)benzenesulfonamide]
 | 0.19 µM | N#Cc1cccc(S(=O)(=O)Nc2ccc3c(c2)NC(=O)CC2CNCCN32)c1 (stereo not shown) [Example 122, 3-cyano-N-(6-oxo-1,2,3,4,4a,5,6,7-octahydropyrazino[1,2-a][1,5]benzodiazepin-9-yl)benzenesulfonamide]
 | 0.0596 µM | O=C1CC2CNCCN2c2ccc(NS(=O)(=O)c3cccc(F)c3)cc2N1 (stereo not shown) [Example 104, 3-fluoro-N-(6-oxo-1,2,3,4,4a,5,6,7-octahydropyrazino[1,2-a][1,5]benzodiazepin-9-yl)benzenesulfonamide]
 | 0.0583 µM | O=C1CC2CNCCN2c2ccc(NS(=O)(=O)c3c(F)cccc3F)cc2N1 (stereo not shown) [Example 123, 2,6-difluoro-N-(6-oxo-1,2,3,4,4a,5,6,7-octahydropyrazino[1,2-a][1,5]benzodiazepin-9-yl)benzenesulfonamide]
 | 0.0556 µM | O=C1CC2CNCCN2c2ccc(NS(=O)(=O)c3cccs3)cc2N1 (stereo not shown) [Example 109, N-(6-oxo-1,2,3,4,4a,5,6,7-octahydropyrazino[1,2-a][1,5]benzodiazepin-9-yl)thiophene-2-sulfonamide]
 | 0.0443 µM | O=C1CC2CNCCN2c2ccc(NS(=O)(=O)c3ccc(Cl)s3)cc2N1 (stereo not shown) [Example 127, 5-chloro-N-(6-oxo-1,2,3,4,4a,5,6,7-octahydropyrazino[1,2-a][1,5]benzodiazepin-9-yl)thiophene-2-sulfonamide]
 | 0.0378 µM | O=C1CC2CNCCN2c2ccc(NS(=O)(=O)c3c(Cl)cccc3Cl)cc2N1 (stereo not shown) [Example 119, 2,6-dichloro-N-(6-oxo-1,2,3,4,4a,5,6,7-octahydropyrazino[1,2-a][1,5]benzodiazepin-9-yl)benzenesulfonamide]
 | 0.0299 µM | O=C1CC2CNCCN2c2ccc(NS(=O)(=O)c3ccccc3F)cc2N1 (stereo not shown) [Example 103, 2-fluoro-N-(6-oxo-1,2,3,4,4a,5,6,7-octahydropyrazino[1,2-a][1,5]benzodiazepin-9-yl)benzenesulfonamide]
> 100 µM | 0.025 µM | O=C1CC2CNCCN2c2ccc(NS(=O)(=O)c3ccccc3)cc2N1 (stereo not shown) [Example 76, N-(6-oxo-1,2,3,4,4a,5,6,7-octahydropyrazino[1,2-a][1,5]benzodiazepin-9-yl)benzenesulfonamide]
 | 0.0234 µM | O=C1CC2CNCCN2c2ccc(NS(=O)(=O)c3ccccc3C(F)(F)F)cc2N1 (stereo not shown) [Example 126, N-(6-oxo-1,2,3,4,4a,5,6,7-octahydropyrazino[1,2-a][1,5]benzodiazepin-9-yl)-2-(trifluoromethyl)benzenesulfonamide]
 | 0.022 µM | COc1cccc(S(=O)(=O)Nc2ccc3c(c2)NC(=O)CC2CNCCN32)c1 (stereo not shown) [Example 107, 3-methoxy-N-(6-oxo-1,2,3,4,4a,5,6,7-octahydropyrazino[1,2-a][1,5]benzodiazepin-9-yl)benzenesulfonamide]
 | 0.0068 µM | O=C1CC2CNCCN2c2ccc(NS(=O)(=O)c3cccc4ccccc34)cc2N1 (stereo not shown) [Example 124, N-(6-oxo-1,2,3,4,4a,5,6,7-octahydropyrazino[1,2-a][1,5]benzodiazepin-9-yl)napthalene-1-sulfonamide]
 | 0.0043 µM | O=C1CC2CNCCN2c2ccc(NS(=O)(=O)c3ccc4ccccc4c3)cc2N1 (stereo not shown) [Example 128, N-(6-oxo-1,2,3,4,4a,5,6,7-octahydropyrazino[1,2-a][1,5]benzodiazepin-9-yl)naphthalene-2-sulfonamide]
